# “And” between values parts separate entries of the source, which are not always exact repeats. Equal values may be shown once. Read-outs that look alike come from different tables or passages of the source. Bridge positions count the residues as written; N and C are the ends. Square brackets hold non-standard residues; d marks the D form. Ends that are not written are not given here. Peptide text beside a SMILES is read from it. Dip = N[C@H](C(=O)O)C(c1ccccc1)c1ccccc1; 1Nal = N[C@@H](Cc1cccc2ccccc12)C(=O)O; 2Nal = N[C@@H](Cc1ccc2ccccc2c1)C(=O)O; Cha = N[C@@H](CC1CCCCC1)C(=O)O; Nle = CCCC[C@H](N)C(=O)O
# How the values were obtained:
# [1] = octanol/water; of the organic molecule corresponding to the amino acid side chain at position 3, not of the peptide; ref Sangster, 1989; cited from earlier work
# α‐thrombin (αT) = target: T1, α‐thrombin (αT) (Homo sapiens, UniProt P00734); assay: Tight-binding inhibition of αT amidolytic activity on chromogenic substrate S2238; format: biochemical
# T1 construct: goes from Thr1 of the A-chain to Glu295 of the B-chain
# Description: Enzyme inhibition assays were all performed at 25 ± 0.1°C in TBS (10 mM Tris–HCl pH 7.4, 0.1% PEG‐8000 w/v) in the presence of 0.15 M or 0.4 M NaCl, using a Jasco double‐beam V‐630 spectrophotometer equipped with a Peltier model PAC‐740 temperature control system (De Filippis et al., [1999]). Tight‐binding inhibition assays were performed by pre‐incubating αT (500 pM) for 30 min with increasing inhibitor concentrations [I]. The reaction started by the addition of the chromogenic substrate S2238 (20 μM) and the release of p‐nitroaniline (pNA) was continuously monitored at 405 nm, using a molar absorptivity of 9920 M^−1∙cm^−1.
# (§1) and added with the chromogenic substrate S2238 (100 mM). The values of vi/v0, were plotted as
# (§2) a function of the inhibitor, as indicated, where v0 and vi are the steady state velocities in the
# (§3) absence or presence of the inhibitor. The data points were interpolated with eq. 3, to yield Kiapp ,
# (§4) which was then converted to KI using eq. 4. (B) Slow-binding inhibition. Assays were
# (§5) performed by adding aT (50 pM) into a solution of S2238 (40 mM) in the presence of
# (§6) Each progress curve was interpolated with
# (§7) eq. 5 to obtain the corresponding observed kinetic constant, kobs.Interpolation of the data points
# with eq. 6 in the plot of kobs vs. [I], allowed us to estimate the values of kon and koff (see
# Methods for details). All measurements were conducted in at 25 ± 0.1°C in TBS, pH 7.4. The
# data points are the average of three independent measurements, with error bars as ±SD.
# αT [2] = target: T2, αT (Homo sapiens, UniProt P00734, S568A)
# [3] = target: T3, α‐Thrombin mutant R93A (exosite II) (Homo sapiens, UniProt P00734, R452A); assay: Slow binding inhibition of thrombin mutant R93A; format: biochemical; conditions: slow binding inhibition model
# T3 construct: made in house
# Description: Single X → Ala mutants of αT at either exosite I (Phe34Ala, Lys73Ala, Lys110Ala) and II (Arg93Ala, Arg101Ala) were produced and purified to homogeneity as earlier reported (Acquasaliente et al., [2016]; Pozzi et al., [2013]) (Figure S3) and incubated with haemadin to extract kinetic (k on and k off) and equilibrium (K I) constants of αT inhibition. […]
# When slow binding inhibition assays were performed, αT (50 pM) was added to solutions of S2238 (50 μM) in the presence of increasing inhibitor (I) concentrations. From the time‐course release of pNA, [P]t, an observed kinetic constant (k obs) of substrate hydrolysis could be determined as a fitting parameter by interpolating each progress curve at increasing [I] to Equation (5) (Arcone et al., [2009]): (5) Pt=vs∙t+vo−vs/kobs∙1−e^−kobs∙t, where v 0 and v s is the initial or steady state velocity at each [I]. The association (k on) and dissociation (k off) rate constants of αT‐haemedin interaction were determined as fitting parameters by interpolating the data points of k obs as a function of [I] with Equation (6): (6) kobs=kon/1+S/Km∙I+koff. […]
# [4] = target: T4, recombinant wild type thrombin (αT) (Homo sapiens, UniProt P00734); assay: Slow binding inhibition of thrombin amidolytic activity (S2238 progress curves); format: biochemical; conditions: slow binding inhibition model (Eq. 5, 6), 25°C, TBS pH 7.4
# T4 construct: made in house
# Description: as §1, §2, §3, §4, §5, §6, §7
# with eq. […]
# αT [5] = target: T2, αT; parameters: made in house; conditions: cited from earlier work
# Text: Abstract Hirudin from Hirudo medicinalis is a bivalent α‐Thrombin (αT) inhibitor, targeting the enzyme active site and exosite‐I, and is currently used in anticoagulant therapy along with its simplified analogue hirulog. […] At variance with hirudin, haemadin targets exosite‐II and therefore (besides the free protease) it also blocks thr ... || The relevance of pharmacological applications of hirudin and its analogues has stimulated intensive research on hematophagous organisms, allowing identification of novel αT protein inhibitors, including the isolation of haemadin from the Indian leech Haemadipsa sylvestris (Strube et al., [1993]). […] However, haemadin binds to the fast form only 7‐fold more tightly than to the Na^+‐free (slow) form, with a coupling free energy ΔG c = ΔG b(fast) − ΔG b(slow) = −1.1 kcal/mol. For comparison, full‐length hirudin and its N‐terminal domain 1–47, bind more tightly to the fast form by ~30‐fold (ΔG c = −2.1 kcal/mol), compared to the slow form (De Filippis et al., [2005]; Di Cera et al., [1997]). The higher af ... || (+ 1 further places)
# [6] = target: thrombin R93A (exosite II) (Homo sapiens, UniProt P00734, R452A); assay: biochemical
# Description: (§8) The reaction was started by addition of the chromogenic substrate S2238 (50 μM). Values of v i/v 0 are plotted as a function of inhibitor concentration, where v 0 and v i are the steady state velocities of S2238 hydrolysis in the absence or presence of inhibitor. Data points are the average of three independent measurements, with errors as ±SD. […] Data points in binding/inhibition measurements are the average of three independent measurements, with errors as ±SD.
# (§9) Fluorescence measurements were performed at 25 ± 0.1°C in Tris buffered saline (TBS, 20 mM Tris–HCl, pH 7.4, 0.15 M NaCl, 0.1% PEG‐8000) in a 1 cm‐pathlength cuvette, using a Jasco FP‐6500 spectrofluorimeter, equipped with a Peltier model ETC‐273T temperature control system. […] Briefly, to a solution of αT (50 nM) were added, under gentle magnetic stirring, incremental volumes of ligand stock solutions. The samples were excited at 280 nm (5/5 excitation/emission slit) and the emission intensities were recorded at 334 nm, after subtracting the corresponding spectra of the ligands alone. Fluorescence data were corrected for sample dilution, which was always <2% at the end of the titration. […]
# (§10) When the binding of PABA was studied, samples were excited at 336 nm and the emission of PABA was recorded at 376 nm, after baseline subtraction and correction for inner filter effect, as detailed elsewhere (Pontarollo et al., [2017]). […]
# [7] = target: recombinant wild‐type thrombin (Homo sapiens, UniProt P00734); assay: biochemical
# Description: as §8, §9, §10
# [8] = Thermal denaturation monitored by far‐UV CD; format: physicochemical; conditions: PBS pH 7.4, protein 0.69 mg/mL; CD at 233 nm (haemadin) or 220 nm (hirudin); heating 40°C·h^−1; inflection point, rough estimate
# Description: CD spectra were recorded on a Jasco J‐810 spectropolarimeter equipped with a Peltier model ETC‐273 T temperature control system (De Filippis, Polverino de Laureto, et al., [1996]). Far and Near UV‐CD spectra were recorded in a 0.1‐ or 1 cm‐pathlength quartz cell at a peptide/protein concentration of 0.47 or 1 mg/mL, respectively. All measurements were performed in phosphate buffered saline (PBS, 10 mM Na2HPO4 pH 7.4, 0.15 M NaCl) at 25 ± 0.1°C. The final spectra resulted from the average of four accumulations after base line subtraction. CD data were expressed as the mean residue ellipticity, [θ] = θ obs·MRW/(10·l·c), where θ obs is the observed signal in degrees, MRW is the mean residue weight, l is the cuvette pathlength in cm, and c is the protein concentration in g∙mL^−1. Stability measurements were carried out by recording the change of the CD signal in the far‐UV region as a function of sample temperature, using a 0.1‐cm pathlength cuvette and linear heating rate of 40°C∙h^−1. The reversibility of thermal unfolding was determined by measuring the recovery of the CD signal upon cooling to the starting temperature. The melting temperature (T m) was estimated from the first‐derivative of the thermal denaturation curve (De Filippis, Vassiliev, et al., [1996]; Frigerio et al., [1996]).
# αT [9] = conditions: at the Arg‐X bond; ref Maraganore et al., 1990; Lombardi et al., 1996, 1999; cited from earlier work
# Text: The fragment‐based approach is quite common in drug discovery and has been already exploited for the production of hirulogs, hirutonins, and hirunorms as simplified hirudin analogues (Lombardi et al., [1996]; Maraganore et al., [1990]; Szewczuk et al., [1993]). […] As a result, hirulog I (Angiomax®) is slowly ...
compound,measurement,setting,value
CCCC[C@H](NC(=O)CNC(=O)[C@H](Cc1ccccc1)NC(=O)[C@H](CCCNC(=N)N)NC(=O)[C@@H](N)[C@@H](C)CC)C(=O)NCC(=O)N[C@@H](CCCCN)C(=O)N[C@H](C(=O)N1CCC[C@H]1C(=O)NCC(=O)O)C(C)C [Met5Nle] (H-IRFG[Nle]GKVPG-OH),Log P,[1],2.73
same,Ki,α‐thrombin (αT),1900 ± 100 nM
CCCC[C@H](NC(=O)CNC(=O)[C@H](CC1CCCCC1)NC(=O)[C@H](CCCNC(=N)N)NC(=O)[C@@H](N)[C@@H](C)CC)C(=O)NCC(=O)N[C@@H](CCCCN)C(=O)N[C@H](C(=O)N1CCC[C@H]1C(=O)NCC(=O)O)C(C)C [Phe3Cha] (H-IR[Cha]G[Nle]GKVPG-OH),Log P,[1],3.88
same,Ki,α‐thrombin (αT),3800 ± 100 nM
CCCC[C@H](NC(=O)CNC(=O)[C@@H](NC(=O)[C@H](CCCNC(=N)N)NC(=O)[C@@H](N)[C@@H](C)CC)C(c1ccccc1)c1ccccc1)C(=O)NCC(=O)N[C@@H](CCCCN)C(=O)N[C@H](C(=O)N1CCC[C@H]1C(=O)NCC(=O)O)C(C)C [Phe3DiP] (H-IR[Dip]G[Nle]GKVPG-OH),Log P,[1],4.80
same,Ki,α‐thrombin (αT),7400 ± 400 nM
CCCC[C@H](NC(=O)CNC(=O)[C@H](Cc1ccc(O)cc1)NC(=O)[C@H](CCCNC(=N)N)NC(=O)[C@@H](N)[C@@H](C)CC)C(=O)NCC(=O)N[C@@H](CCCCN)C(=O)N[C@H](C(=O)N1CCC[C@H]1C(=O)NCC(=O)O)C(C)C [Phe3Tyr] (H-IRYG[Nle]GKVPG-OH),Log P,[1],1.97
same,Ki,α‐thrombin (αT),6600 ± 400 nM
CCCC[C@H](NC(=O)CNC(=O)[C@H](Cc1cccc2ccccc12)NC(=O)[C@H](CCCNC(=N)N)NC(=O)[C@@H](N)[C@@H](C)CC)C(=O)NCC(=O)N[C@@H](CCCCN)C(=O)N[C@H](C(=O)N1CCC[C@H]1C(=O)NCC(=O)O)C(C)C [Phe3αNal] (H-IR[1Nal]G[Nle]GKVPG-OH),Log P,[1],4.00
CCCC[C@H](NC(=O)CNC(=O)[C@H](Cc1ccc2ccccc2c1)NC(=O)[C@H](CCCNC(=N)N)NC(=O)[C@@H](N)[C@@H](C)CC)C(=O)NCC(=O)N[C@@H](CCCCN)C(=O)N[C@H](C(=O)N1CCC[C@H]1C(=O)NCC(=O)O)C(C)C [Phe3βNal] (H-IR[2Nal]G[Nle]GKVPG-OH),Log P,[1],4.00
same,Ki,α‐thrombin (αT),190 ± 10 nM
CCCC[C@H](NC(=O)CNC(=O)[C@H](Cc1ccc2ccccc2c1)NC(=O)[C@H](CCCNC(=N)N)NC(=O)[C@@H](N)[C@@H](C)CC)C(=O)NCC(=O)N[C@@H](CCCCN)C(=O)N[C@H](C(=O)N1CCC[C@H]1C(=O)NCC(=O)NCC(=O)NCC(=O)N1CCC[C@H]1C(=O)N[C@@H](CCCCN)C(=O)N1CCC[C@H]1C(=O)N[C@@H](CO)C(=O)N[C@@H](CO)C(=O)N[C@@H](CCC(=O)O)C(=O)N[C@@H](Cc1ccccc1)C(=O)N[C@@H](CCC(=O)O)C(=O)N[C@@H](CCC(=O)O)C(=O)N[C@@H](Cc1ccccc1)C(=O)N[C@@H](CCC(=O)O)C(=O)N[C@H](C(=O)N[C@@H](CC(=O)O)C(=O)N[C@@H](CCC(=O)O)C(=O)N[C@@H](CCC(=O)O)C(=O)N[C@@H](CCC(=O)O)C(=O)N[C@@H](CCCCN)C(=O)O)[C@@H](C)CC)C(C)C [haemanorm] (H-IR[2Nal]G[Nle]GKVPGGGPKPSSEFEEFEIDEEEK-OH),resistance to proteolysis by αT at the Arg2‐βNal bond,αT [2],fully resistant
same,Ki,α‐thrombin (αT),0.8 nM
"IRFGMGKVPCPDGEVGYTCDCGEKICLYGQSCNDGQCSGDPKPSSEFEEFEIDEEEK (disulfide 10-19, 21-32, 26-37) [haemadin]",koff,[3],3.68e-05 ± 1e-07 s⁻¹
same,kon,[3],2.998e+08 ± 300000 M⁻¹ s⁻¹
same,koff,[4],4.83e-05 ± 2e-07 s⁻¹
same,kon,[4]; αT 50 pM added to S2238 plus inhibitor,2.253e+08 ± 200000 M⁻¹ s⁻¹
same,Ki,α‐thrombin (αT),0.0015 ± 5e-05 nM
"N‐terminal domain 1–40: N‐terminal domain 1–40 of haemadin (Richardson et al., 2002)",Ki,"αT [5]; ref Richardson et al., 2002",5 nM
Phe3Trp: Phe3′ → Trp analogue of Haem(1–10),Ki,"α‐thrombin (αT); 25 ± 0.1°C, TBS, αT 250 pM incubated with peptide, S2238 50 μM, tight‐binding model (Eq. 3, 4), average of three independent measurements ± SD, read-out: K I",2900 ± 300 nM
SEFEEFEIDEEEK [Haem(45–57)],Kd,[6],1180 ± 90 nM
same,Kd,[7],1600 nM
VSYTD [reference compound],inhibition of αT,α‐thrombin (αT); not shown,lacks any significant inhibition
hirudin,coupling free energy ΔG c,"αT [5]; fast vs slow form, ref De Filippis et al., 2005, Di Cera et al., 1997",-2.1 kcal/mol
same,fold tighter binding to fast form than to slow form,"αT [5]; ref De Filippis et al., 2005, Di Cera et al., 1997",~ 30 fold
same,melting temperature (T m),[8],63 ± 1 °C and ~ 63 °C
hirulog I: synthetic bivalent analogue of hirudin,cleavage by αT,αT [9],slowly cleaved

# — PMC10683372 (Protein Science : A Publication of the Protein Society, 2023)
